Here are results for ten compounds from US8222297B2, “Aniline or phenol mustards linked to DNA-affinic molecules or water-soluble aromatic rings and their use as cancer therapeutic agents” (Academia Sinica, priority 2007, dated 2012).

Series [1] deals with human mammary carcinoma MX-1 xenograft. The experiment in a line: Antitumor therapeutic effect in nude mice bearing MX-1 xenograft. It is filed as in vivo. To be noted: for log cell kill: estimated by Eq. 4 from remission time; for Duration complete remission maintained without relapse: one cycle 5-dose-treatment, 3 out of 3 mice. How it is done:
(§1) Athymic nude mice bearing the nu/nu gene were used for human breast tumor MX-1 xenograft (FIGS. 3 and 4) and human brain glioma U87 GM xenograft (FIG. 5). Nude mice were obtained from National Cancer Institute, Frederick, Md. Male mice 6 weeks old or older weighing 22 g or more were used for experiments with subcutaneous tumor inoculation as described previously.^62 Drug was administrated via the tail vein by iv injection. Tumor volumes were assessed by measuring length×width×height (or width) by using caliper. Vehicle used was 20 μL DMSO in 180 μL saline. All animal studies were conducted in accordance with the guidelines of the U.S. National Institutes of Health Guide for the Care and Use of Animals and the protocol approved by the Institutional Animal Care and Use Committee.
(§2) Animals. Athymic nude mice bearing the nu/nu gene were obtained from NCI, Frederick, Md. and used for all human tumor xenografts. Male nude mice 6 weeks or older weighing 20-24 g or more were used. Compounds were administered via the tail vein for i.v. injection or infusion as described previously.^59 A typical formulation for chemotherapeutic studies for each drug was dissolved in DSMO to make a 25 mg/ml fresh solution, 0.4 ml of this solution was mixed with 0.3 ml of Tween 80, plus 1.3 ml to make 2 ml of 5 mg/ml solution. Bolus injection volume was 0.1-0.2 ml per mouse. Tumor volume was assessed by measuring length×width×height (or width) by using a caliper. For tumor-bearing nude mice during the course of the experiment, the body weight refers to total weight minus the weight of the tumor. All animal studies were conducted in accordance with the guidelines for the National Institute of Health Guide for the Care and Use of Animals and the protocol approved by the Institutional Animal Care and Use Committee.
The therapeutic effects of a drug against human tumor xenografts in nude mice, under the optimal therapeutic conditions but without any lethality due to drug toxicity, the following degrees of therapeutic effects are defined and calculated by the following formula:
[formula] • where T0 is the initial tumor size (in mm^3) at beginning of drug treatment; • Tc is tumor size of untreated control group on a given date; and • Tx is tumor size of the drug treated group on a given date.
[formula] • Where T0 and Tx are as specified as above. • Tumor disappearance (complete remission or CR) is defined by the effect where [Tx=0] for a period of time (in days) for a proportion of animals (NCR/N), where N is the total number of animals in the group, and NCR is the number of mice in the group that achieved CR. • Tumor relapse is quantitatively calculated by [The Day tumor relapsed(Drelp)−The Day CR achieved(DCR)] (Eq. 3) • for a proportion of animals (Nrelp/N) where N is the total number of animals in the group, and Nrelp is the number of the mice in the group that relapsed. • The log cell kill (LCK) of the tumor tissue after a given chemotherapy that reached CR is estimated by: LCK=log [2^(Tumor remission in days/Tumor doubling time in days)] (Eq. 4)

In series [2] the test system is human glioma U87 GM s.c. xenograft. Nature of the series: Therapeutic effect in nude mice bearing U87 glioma xenograft. Format: in vivo. How it is done: as §1
The therapeutic effects of N-mustard compounds, BO-1049, 1051 and 1055, against human glioma U87 GM s.c. xenograft in nude mice were given in FIG. 5, A and B. U87 glioma is known to be refractory tumor that can not be effectively treated with cell-cycle specific anti-tumor drugs such as taxol, epothilones, or arabinosylcytosine. However, cell-cycle non-specific drugs such as alkylating agent, cyclophosphamide or BCNU, yields better therapeutic results. […] However, upon 6 days of recession of treatment with BO-1049 or BO-1055, the tumor began to regrow.
as §2

Series [3] has as its system CCRF-CEM human lymphoblastic leukemia cells. Nature of the series: In vitro cytotoxicity, XTT assay. In general terms: Tetrazolium assays rely on reduction of a dye to a coloured formazan, in cell work by metabolically active cells.
The test system of series [4] is Human mammary carcinoma (MX-1) tumor cells. The experiment in a line: In vitro cytotoxicity, SRB assay.
Series [5] relates to Human colon carcinoma HCT-116 cells. The experiment in a line: In vitro cytotoxicity, SRB assay. In general terms: In SRB staining, fixed cells bind dye roughly in proportion to their protein.
For the next series, the system named is CCRF-CEM/Taxol. Nature of the series: In vitro cytotoxicity, XTT assay, taxol-resistant subline. To be noted: for fold of cross-resistant, CCRF-CEM/Taxol vs IC50 of parent cell line: number in brackets; for IC50: read-out: IC50 CCRF-CEM/Taxol, XTT assay, 72-hr incubation.
For series [6] the following is noted: unpublished results of the applicant.
The test system of series [7] is various human leukemia and solid tumor. To be noted: in vitro and in vivo; cited from earlier work.
[8] abbreviates: 150 mg/kg, Q2D×5, i.v.-injection.
Setting [9] is: read-out: IC50 CCRF-CEM, XTT assay, 72-hr incubation.
[10] abbreviates: read-out: IC50 MX-1, SRB assay, 72-hr incubation.
The mark [11] stands for this setting: read-out: IC50 HCT-116, SRB assay, 72-hr incubation.
[12] abbreviates: Homo sapiens, CCRF-CEM, 72 h, read-out: IC50 CCRF-CEM, XTT assay, 72-hr incubation.
Where [13] appears, read: Homo sapiens, 72 h, read-out: IC50 MX-1, SRB assay, 72-hr incubation.
Where [14] appears, read: Homo sapiens, HCT-116, 72 h, read-out: IC50 HCT-116, SRB assay, 72-hr incubation.

What is called melting point is the temperature of the solid-liquid transition.

Like-named read-outs stand apart in the source and are kept apart here. A value given as a limit tells only on which side of the number the result lay.

`COc1ccc2nc(C)cc(NNC(=O)Nc3ccc(N(CCCl)CCCl)cc3)c2c1` gave a melting point of 224 to 225 °C.

The compound `Cc1cc(NNC(=O)Nc2ccc(N(CCCl)CCCl)cc2)c2ccccc2n1` showed a melting point of 235 to 236 °C.

In turn, `Cc1cc(Oc2ccc(NC(=O)Nc3ccc(N(CCCl)CCCl)cc3)cc2)c2cc3c(cc2n1)OCO3` displayed a melting point of 217 to 218 °C.

`Cc1cc(Oc2ccc(NC(=O)Oc3ccc(N(CCCl)CCCl)cc3)cc2)c2cc3c(cc2n1)OCO3` showed a melting point of 183 to 184 °C.

Regarding “1-{4-[Bis-(2-chloroethyl)amino]phenyl-3-[6-methoxy-2-(4-methoxyphenyl)quinolin-4-yl]urea [BO-1049]”, the “Tumor remission achieved” value in [1] (doses and schedules as in Table 2 (30-150 mg/kg, i.v.)) is on record as “complete tumor remission”. For the same compound, the log cell kill in series [1] was above 4.1. Further, the “Duration complete remission maintained without relapse” value in series [1] is recorded as “over 70 days”. Further, in series [2] (setting [8]), the “time after end of treatment at which tumor began to regrow” value is on record as 6 days. Also, the tumor-growth suppression entry in series [2] (setting [8]) is recorded as “complete tumor-growth suppression”. Also, the “therapeutic effect compared with cyclophosphamide” value in series [2] (BO-1049 150, BO-1051 100, BO-1055 30 mg/kg vs cyclophosphamide 80 mg/kg, all Q2D×5, parallel study) is “superior therapeutic effects than cyclophosphamide”. Moreover, the IC50 came to 366 nM in [3] (setting [9]), 1840 nM in [4] (setting [10]), 3740 nM in series [5] (setting [11]) and 587 nM in the series on CCRF-CEM/Taxol. The “fold of cross-resistant, CCRF-CEM/Taxol vs IC50 of parent cell line” value (shortened to “fold of cross-resistant, CCRF-CEM/Taxol”) in the series with CCRF-CEM/Taxol was 1.6 x.

With `OCc1cc(Nc2c3ccccc3nc3ccccc23)cc(OCCN(CCCl)CCCl)c1` [BO-0742], the half-life in mice result in series [6] is recorded as “about 25 min”. Besides, in [7], the “cytotoxicity relative to AHMA (times more cytotoxic)” value is recorded as above 100 time.

Regarding `COc1cc(N)cc(Nc2c3ccccc3nc3c(OCCN(CCCl)CCCl)cccc23)c1.Cl` [BO-0940, N1-(4-{2-[bis(2-chloroethyl)-amino]-ethoxy}acridin-9-yl)-5-methoxybenzene-1,3-diamine hydrochloride], the “cytotoxicity relative to AHMA (times more cytotoxic)” value in series [7] is recorded as above 100 time.

With `CN(C)CCNC(=O)c1cccc(NC(=O)Nc2ccc(N(CCCl)CCCl)cc2)c1.Cl` [BO-1055, 3-(3-{4-[Bis(2-chloroethyl)amino]phenyl}ureido)-N-(2-dimethylaminoethyl)benzamide hydrochloride], the “Maximal body-weight loss (%)” value in series [1] (30 mg/kg, Q2D × 5, i.v.) is 15%. Further, the log cell kill in [1] is reported as above 4.1. In addition, the “Duration complete remission maintained without relapse” value in series [1] is “over 70 days”. Further, the “time after end of treatment at which tumor began to regrow” value in series [2] (30 mg/kg, Q2D×5, i.v.-injection) stood at 6 days. In addition, the IC50 in series [3] (setting [9]) came to 127 nM; in [4] (setting [10]), 551 nM; in series [5] (setting [11]) it was 661 nM; in the series with CCRF-CEM/Taxol, 1200 nM. In addition, the “fold of cross-resistant, CCRF-CEM/Taxol” value in the series on CCRF-CEM/Taxol was 15.4 x.

On to `CC(=O)O[C@H]1C(=O)[C@@]2(C)[C@H]([C@H](OC(=O)c3ccccc3)[C@]3(O)C[C@H](OC(=O)[C@H](O)[C@@H](NC(=O)c4ccccc4)c4ccccc4)C(C)=C1C3(C)C)[C@]1(OC(C)=O)CO[C@@H]1C[C@@H]2O` [Taxol, reference compound], for which the IC50 amounted to 1.3 ± 0.1 nM in [3] (setting [12]), 35 ± 14 nM in [4] (setting [13]) and 1.3 ± 0.2 nM in series [5] (setting [14]). In addition, the “fold of cross-resistant, CCRF-CEM/Taxol” value in the series with CCRF-CEM/Taxol is 330 x.

Turning to `CC[C@]1(O)C[C@@H]2CN(CCc3c([nH]c4ccccc34)[C@@](C(=O)OC)(c3cc4c(cc3OC)N(C)[C@H]3[C@@](O)(C(=O)OC)[C@H](OC(C)=O)[C@]5(CC)C=CCN6CC[C@]43[C@@H]65)C2)C1` [Vinblastine, reference compound], the IC50 is 0.73 ± 0.09 nM in [3] (setting [12]), 2.9 ± 0.5 nM in series [4] (setting [13]) and 1.8 ± 0.4 nM in series [5] (setting [14]). Moreover, the “fold of cross-resistant, CCRF-CEM/Taxol” value in the series with CCRF-CEM/Taxol was found to be 106.2 x.
